Data taken from patent US11377440B2, “Modulators of stimulator of interferon genes (STING)” (GlaxoSmithKline Intellectual Property Development Limited, priority 2017, dated 2022).

System: T1, STING
T1 construct: endogenous in cells; host or cells: THP-1
Assay: Functional assay IV (THP-1 antagonist assay), IFNβ secretion after Bacmam virus
Assay type: cell-based, human
Settings: THP-1 cells, Bacmam virus MOI of 40 pfu/cell; upper limit of the assay 9.1

Compound: CCn1nc(C)cc1C(=O)/N=c1\n(C)c2cc(C(N)=O)ccc2n1CCCCCn1/c(=N/C(=O)c2cc(C)nn2CC)n(C)c2cc(C(N)=O)ccc21 [Example 24]
- THP-1 antagonist assay (pIC50): 4.6
